Measured values as given in ChEMBL document CHEMBL1137777, “Design, synthesis, and evaluation of indolinones as triple angiokinase inhibitors and the discovery of a highly specific 6-methoxycarbonyl-substituted indolinone (BIBF 1120)” (J Med Chem, 2009).

Tests used:
[1] = target: Vascular endothelial growth factor receptor 2 (Homo sapiens, UniProt P35968); assay: Inhibition of human VEGFR2 expressed in Sf9 cells
HUVEC = assay: cells; settings: Homo sapiens, 3 h
Description: Antiangiogenic activity in HUVEC assessed as inhibition of VEGF-induced cell proliferation by [3H]thymidine incorporation assay

HeLa = assay: Antiangiogenic activity against human HeLa cells assessed as inhibition of cell proliferation by [3H]thymidine incorporation assay; format: functional, cell-based
[2] = target: Vascular endothelial growth factor receptor 1 (Homo sapiens, UniProt P17948)
Description: Inhibition of human VEGFR1

[3] = Half life in NMRI nu/nu mouse at 50 mg/kg, po administered as single dose; format: ADME, organism-based; set-up: dose 50 mg/kg, route oral; settings: in vivo
[4] = Cmax in NMRI nu/nu mouse at 50 mg/kg, po administered as single dose; format: ADME, organism-based; set-up: dose 50 mg/kg, route oral; settings: in vivo
[5] = AUC in NMRI nu/nu mouse at 50 mg/kg, po administered as single dose; format: ADME, organism-based, Plasma; set-up: dose 50 mg/kg, route oral; settings: NMRI nu/nu, plasma
[6] = target: Fibroblast growth factor receptor 1 (Homo sapiens, UniProt P11362)
Description: Inhibition of human FGFR1

[7] = target: Vascular endothelial growth factor receptor 3 (Homo sapiens, UniProt P35916)
Description: Inhibition of human VEGFR3

[8] = target: Platelet-derived growth factor receptor alpha (Homo sapiens, UniProt P16234)
Description: Inhibition of human PDGFRalpha

[9] = target: Serine/threonine-protein kinase PLK1 (Homo sapiens, UniProt P53350); assay: Inhibition of human Plk1
[10] = target: Epidermal growth factor receptor (Homo sapiens, UniProt P00533); assay: Inhibition of human EGFR
[11] = target: Cyclin-dependent kinase 4 (Homo sapiens, UniProt P11802); assay: Inhibition of human CDK4
[12] = target: Cyclin-dependent kinase 1 (Homo sapiens, UniProt P06493); assay: Inhibition of human CDK1
Insulin receptor = Insulin receptor (Homo sapiens, UniProt P06213); assay: Inhibition of human InsR
[13] = target: Receptor tyrosine-protein kinase erbB-2 (Homo sapiens, UniProt P04626); assay: Inhibition of human HER2
[14] = target: Insulin-like growth factor 1 receptor (Homo sapiens, UniProt P08069); assay: Inhibition of human IGFR1
Sequence of Insulin-like growth factor 1 receptor (P08069 31-736 limits assumed): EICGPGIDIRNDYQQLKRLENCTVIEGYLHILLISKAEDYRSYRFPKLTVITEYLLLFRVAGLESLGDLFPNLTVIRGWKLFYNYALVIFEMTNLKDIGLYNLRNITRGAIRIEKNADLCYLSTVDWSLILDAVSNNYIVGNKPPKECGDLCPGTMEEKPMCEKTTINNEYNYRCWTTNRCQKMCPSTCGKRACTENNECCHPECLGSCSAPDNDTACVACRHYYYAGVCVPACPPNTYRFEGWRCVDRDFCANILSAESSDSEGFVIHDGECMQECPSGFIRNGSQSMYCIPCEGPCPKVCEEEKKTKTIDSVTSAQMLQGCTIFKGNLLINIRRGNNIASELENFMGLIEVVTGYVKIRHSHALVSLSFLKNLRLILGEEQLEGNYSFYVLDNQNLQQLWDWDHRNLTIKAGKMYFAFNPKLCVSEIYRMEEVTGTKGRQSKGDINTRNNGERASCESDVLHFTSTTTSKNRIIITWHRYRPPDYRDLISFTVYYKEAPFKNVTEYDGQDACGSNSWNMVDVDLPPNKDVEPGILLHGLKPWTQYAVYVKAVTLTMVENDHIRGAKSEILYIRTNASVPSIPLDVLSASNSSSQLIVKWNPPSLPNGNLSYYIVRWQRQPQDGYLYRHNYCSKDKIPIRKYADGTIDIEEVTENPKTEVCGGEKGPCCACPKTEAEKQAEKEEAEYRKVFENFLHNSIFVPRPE
Sequence of Insulin-like growth factor 1 receptor (P08069 741-1367 limits assumed): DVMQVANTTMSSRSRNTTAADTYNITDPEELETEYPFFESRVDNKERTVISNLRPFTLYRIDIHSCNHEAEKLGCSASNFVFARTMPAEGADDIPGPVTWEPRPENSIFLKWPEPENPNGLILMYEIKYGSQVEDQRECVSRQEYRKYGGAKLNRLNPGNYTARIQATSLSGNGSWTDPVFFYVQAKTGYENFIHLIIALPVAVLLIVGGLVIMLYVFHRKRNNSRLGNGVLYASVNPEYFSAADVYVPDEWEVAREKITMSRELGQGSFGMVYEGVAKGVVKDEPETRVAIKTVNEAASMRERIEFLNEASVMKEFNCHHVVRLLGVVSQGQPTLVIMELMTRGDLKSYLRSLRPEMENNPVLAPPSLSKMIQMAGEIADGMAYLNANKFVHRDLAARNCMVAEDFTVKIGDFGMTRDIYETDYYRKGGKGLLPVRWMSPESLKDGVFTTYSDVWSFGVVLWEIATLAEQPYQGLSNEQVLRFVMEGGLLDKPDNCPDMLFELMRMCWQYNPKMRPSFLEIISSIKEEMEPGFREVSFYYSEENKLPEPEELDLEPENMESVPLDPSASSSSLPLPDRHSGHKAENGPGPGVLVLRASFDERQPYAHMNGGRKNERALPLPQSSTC

Sequence of Vascular endothelial growth factor receptor 2 (P35968 whole entry): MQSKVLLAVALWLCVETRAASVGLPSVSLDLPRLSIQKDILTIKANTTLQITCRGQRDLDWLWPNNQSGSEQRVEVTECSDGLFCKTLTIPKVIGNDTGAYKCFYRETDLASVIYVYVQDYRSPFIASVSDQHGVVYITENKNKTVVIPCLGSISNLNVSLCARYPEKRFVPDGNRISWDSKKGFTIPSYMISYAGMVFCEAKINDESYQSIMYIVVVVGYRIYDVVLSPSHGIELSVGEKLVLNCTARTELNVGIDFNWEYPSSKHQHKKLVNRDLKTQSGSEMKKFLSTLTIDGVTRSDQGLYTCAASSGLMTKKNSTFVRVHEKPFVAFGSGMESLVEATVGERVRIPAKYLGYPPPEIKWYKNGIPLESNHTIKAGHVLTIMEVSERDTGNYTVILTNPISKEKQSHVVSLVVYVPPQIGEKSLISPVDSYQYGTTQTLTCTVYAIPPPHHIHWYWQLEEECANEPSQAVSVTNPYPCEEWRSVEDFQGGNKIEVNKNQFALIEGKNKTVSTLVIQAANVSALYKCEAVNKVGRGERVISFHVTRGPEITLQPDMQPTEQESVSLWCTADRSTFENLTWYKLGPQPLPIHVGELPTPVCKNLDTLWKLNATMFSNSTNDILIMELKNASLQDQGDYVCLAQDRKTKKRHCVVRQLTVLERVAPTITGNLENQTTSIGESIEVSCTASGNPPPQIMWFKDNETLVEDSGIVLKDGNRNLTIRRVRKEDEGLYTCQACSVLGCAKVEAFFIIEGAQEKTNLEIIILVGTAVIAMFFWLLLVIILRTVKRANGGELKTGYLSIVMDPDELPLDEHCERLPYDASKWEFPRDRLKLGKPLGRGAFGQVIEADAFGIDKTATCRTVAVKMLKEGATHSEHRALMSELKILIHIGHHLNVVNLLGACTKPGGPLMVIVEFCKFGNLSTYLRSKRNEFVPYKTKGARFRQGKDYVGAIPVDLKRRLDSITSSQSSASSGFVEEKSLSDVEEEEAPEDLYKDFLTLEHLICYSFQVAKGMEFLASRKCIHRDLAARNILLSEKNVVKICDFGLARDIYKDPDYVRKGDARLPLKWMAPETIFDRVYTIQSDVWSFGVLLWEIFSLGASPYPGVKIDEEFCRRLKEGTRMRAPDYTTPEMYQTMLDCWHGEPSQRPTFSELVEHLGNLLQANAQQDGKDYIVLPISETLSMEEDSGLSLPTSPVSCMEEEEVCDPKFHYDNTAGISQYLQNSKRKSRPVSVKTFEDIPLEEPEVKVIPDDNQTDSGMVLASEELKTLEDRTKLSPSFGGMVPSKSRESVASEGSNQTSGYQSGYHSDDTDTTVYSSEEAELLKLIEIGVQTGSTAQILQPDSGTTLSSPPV
Sequence of Fibroblast growth factor receptor 1 (P11362 whole entry): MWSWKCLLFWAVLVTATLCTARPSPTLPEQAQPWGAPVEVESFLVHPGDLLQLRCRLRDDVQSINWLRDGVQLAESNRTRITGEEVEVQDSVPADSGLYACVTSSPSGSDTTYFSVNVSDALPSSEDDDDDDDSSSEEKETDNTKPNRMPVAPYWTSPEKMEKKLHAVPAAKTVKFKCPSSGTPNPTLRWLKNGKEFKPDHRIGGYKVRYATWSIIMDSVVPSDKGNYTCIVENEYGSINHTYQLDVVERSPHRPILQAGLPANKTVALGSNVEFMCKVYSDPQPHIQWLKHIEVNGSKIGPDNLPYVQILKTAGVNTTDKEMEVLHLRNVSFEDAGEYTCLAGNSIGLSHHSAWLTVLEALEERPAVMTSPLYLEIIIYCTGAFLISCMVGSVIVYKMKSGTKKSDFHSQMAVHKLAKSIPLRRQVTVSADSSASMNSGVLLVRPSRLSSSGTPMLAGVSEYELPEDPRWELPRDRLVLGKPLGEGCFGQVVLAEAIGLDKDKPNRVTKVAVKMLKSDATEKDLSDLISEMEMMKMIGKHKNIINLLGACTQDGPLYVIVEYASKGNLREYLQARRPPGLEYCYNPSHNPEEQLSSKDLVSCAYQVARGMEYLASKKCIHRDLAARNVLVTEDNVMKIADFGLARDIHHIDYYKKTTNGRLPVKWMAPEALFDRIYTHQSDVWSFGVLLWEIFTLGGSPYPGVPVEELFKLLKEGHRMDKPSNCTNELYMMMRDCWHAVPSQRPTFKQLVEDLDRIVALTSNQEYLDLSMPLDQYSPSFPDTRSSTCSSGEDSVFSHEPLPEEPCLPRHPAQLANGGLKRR
Sequence of Cyclin-dependent kinase 4 (P11802 whole entry): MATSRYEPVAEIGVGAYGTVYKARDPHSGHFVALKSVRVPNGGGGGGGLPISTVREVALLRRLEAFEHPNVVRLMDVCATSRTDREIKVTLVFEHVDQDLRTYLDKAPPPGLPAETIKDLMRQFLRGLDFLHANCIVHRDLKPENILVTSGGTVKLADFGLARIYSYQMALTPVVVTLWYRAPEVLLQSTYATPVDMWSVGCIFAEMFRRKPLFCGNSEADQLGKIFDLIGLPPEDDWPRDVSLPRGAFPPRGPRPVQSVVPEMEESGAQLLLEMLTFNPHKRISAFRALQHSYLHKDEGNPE
Sequence of Cyclin-dependent kinase 1 (P06493 whole entry): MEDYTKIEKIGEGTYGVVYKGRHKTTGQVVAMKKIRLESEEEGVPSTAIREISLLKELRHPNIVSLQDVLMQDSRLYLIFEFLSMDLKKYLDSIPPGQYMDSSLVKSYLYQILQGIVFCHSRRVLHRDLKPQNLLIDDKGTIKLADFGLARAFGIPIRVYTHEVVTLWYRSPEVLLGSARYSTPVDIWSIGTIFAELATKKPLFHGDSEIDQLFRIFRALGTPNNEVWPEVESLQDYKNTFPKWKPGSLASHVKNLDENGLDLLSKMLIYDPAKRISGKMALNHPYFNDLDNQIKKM
Sequence of Serine/threonine-protein kinase PLK1 (P53350 whole entry): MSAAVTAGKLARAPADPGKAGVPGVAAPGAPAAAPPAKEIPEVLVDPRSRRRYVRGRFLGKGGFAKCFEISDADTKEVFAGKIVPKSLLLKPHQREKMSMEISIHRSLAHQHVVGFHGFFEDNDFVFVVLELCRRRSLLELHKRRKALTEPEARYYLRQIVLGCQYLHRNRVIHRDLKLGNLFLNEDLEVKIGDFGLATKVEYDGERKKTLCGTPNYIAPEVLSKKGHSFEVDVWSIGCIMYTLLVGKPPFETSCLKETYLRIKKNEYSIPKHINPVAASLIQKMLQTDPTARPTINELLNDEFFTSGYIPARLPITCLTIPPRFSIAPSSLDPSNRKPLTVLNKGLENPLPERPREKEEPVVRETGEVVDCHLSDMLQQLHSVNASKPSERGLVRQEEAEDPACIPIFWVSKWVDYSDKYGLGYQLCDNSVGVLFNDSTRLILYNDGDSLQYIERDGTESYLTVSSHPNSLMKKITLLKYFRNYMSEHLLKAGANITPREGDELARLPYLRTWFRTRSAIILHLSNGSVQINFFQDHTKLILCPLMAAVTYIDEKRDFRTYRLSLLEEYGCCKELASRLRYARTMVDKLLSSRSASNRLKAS

| SMILES | IC50 [1] | EC50 (HUVEC) | further results |
| --- | --- | --- | --- |
| CN(C)C(=O)c1ccc2c(c1)NC(=O)/C2=C(\Nc1ccc(CN2CCCCC2)cc1)c1ccccc1 | 1310 nM | 542 nM |  |
| CNC(=O)c1ccc2c(c1)NC(=O)/C2=C(\Nc1ccc(CN2CCCCC2)cc1)c1ccccc1 | 2100 nM | 1910 nM |  |
| CC(=O)Nc1ccc2c(c1)NC(=O)/C2=C(\Nc1ccc(CN2CCCCC2)cc1)c1ccccc1 | > 3000 nM |  |  |
| COC(=O)c1ccc2c(c1)NC(=O)/C2=C(\NC1CCC(NC(=O)CN(C)C)CC1)c1ccccc1 (stereo unspecified) | > 10000 nM |  |  |
| COC(=O)c1ccc2c(c1)NC(=O)/C2=C(\NC1CCN(C)CC1)c1ccccc1 | > 10000 nM |  |  |
| CCN(C)C(=O)c1ccc2c(c1)NC(=O)/C2=C(\Nc1ccc(CN2CCCCC2)cc1)c1ccccc1 | 1450 nM | 718 nM |  |
| COC(=O)c1ccc2c(c1)NC(=O)/C2=C(\Nc1ccc(CN2CCCCC2)cc1)c1ccccc1 | 36 nM | 103 nM | EC50 (HeLa): > 1000 nM; IC50 [2]: 146 nM; half-life [3]: 3.5 h; Cmax [4]: 952 ng/mL; AUC [5]: 5250 ng·h/mL; IC50 [6]: 71 nM; IC50 [7]: 32 nM; IC50 [8]: 54 nM |

Continued, in another order:

| IC50 [1] | SMILES | EC50 (HUVEC) | further results |
| --- | --- | --- | --- |
| 83 nM | COC(=O)c1ccc2c(c1)NC(=O)/C2=C(\Nc1ccc(NC(=O)CN2CCN(C)CC2)cc1)c1ccccc1 | 83 nM |  |
| 119 nM | COC(=O)c1ccc2c(c1)NC(=O)/C2=C(\Nc1ccc(NC(=O)CN(C)C)cc1)c1ccccc1 | 88 nM |  |
| 245 nM | COC(=O)c1ccc2c(c1)NC(=O)/C2=C(\Nc1ccc(CN2CCCC2=O)cc1)c1ccccc1 |  |  |
| 248 nM | COC(=O)c1ccc2c(c1)NC(=O)/C2=C(\Nc1cccc(C(=O)N(C)CCCN(C)C)c1)c1ccccc1 |  |  |
| 791 nM | O=C1Nc2cc(-n3cccc3)ccc2/C1=C(/Nc1ccc(CN2CCCCC2)cc1)c1ccccc1 | 585 nM |  |
| 132 nM | Nc1ccc2c(c1)NC(=O)/C2=C(\Nc1ccc(CN2CCCCC2)cc1)c1ccccc1 | 414 nM |  |
| 763 nM | NC(=O)c1ccc2c(c1)NC(=O)/C2=C(\Nc1ccc(CN2CCCCC2)cc1)c1ccccc1 | 342 nM | IC50 [9]: > 10000 nM; IC50 [10]: > 10000 nM; IC50 [11]: > 10000 nM; IC50 [12]: > 10000 nM; IC50 (Insulin receptor): > 10000 nM; IC50 [13]: > 10000 nM; IC50 [14]: > 10000 nM |
| 8 nM | COC(=O)c1ccc2c(c1)NC(=O)/C2=C(\Nc1ccc(N(CC(=O)N(C)C)C(C)=O)cc1)c1ccccc1 | 37 nM |  |
| 64 nM | COC(=O)c1ccc2c(c1)NC(=O)/C2=C(\Nc1ccc(CN(C)C)cc1)c1ccccc1 |  |  |
